{"source": "patent EP2465928A1", "about": "“Treatment of Th17-mediated diseases” (Academisch Medisch Centrum bij de Universiteit van Amsterdam, priority 2010, dated 2012)", "assay_type_in_all_cases": "cell-based, human", "key": {"[1]": {"test_system": "Malt1", "assay": "Immunofluorescence staining of nuclear translocation of NF-κB subunits in DCs", "conditions": "curdlan-stimulated DCs; 75 µM z-VRPR-FMK; data not shown", "experimental": "(§1) Cells, stimulation, inhibition and RNA interference. This study was performed in accordance with the ethical guidelines of the Academic Medical Center. Immature DCs (iDC, day 6 and 7) were generated as described previously. In short, human blood monocytes were isolated from buffy coats by a Ficoll and a Percoll gradient and or CD14 selection by magnetic beads. Monocytes were differentiated into immature DCs in the presence of IL-4 and GM-CSFAt day 6 the phenotype of the cultured DCs was confirmed by flow cytometric analysis. 100.000 DCs were stimulated with 10 µg/ml curdlan (Sigma), heat-killed Candida spp. (multiplicity of infection (MOI) 10) and 10 ng/ml LPS from Salmonella typhosa (Sigma) in 100-150 µl medium. Dectin-2 triggering was induced by pre-incubating DCs for 2 h at room temperature with 5 µg/ml anti-dectin-2 (MAB3114; R&D Systems), followed by cross-linking on goat-anti-mouse IgG (115-006-0710; Jackson)-coated culture plates. Cells were pre-incubated with blocking antibodies or inhibitor for 2 h with 20 µg/ml anti-dectin-1 (MAB1859; R&D Systems), 20 µg/ml anti-dectin-2 (MAB3114; R&D Systems) or 75 µM z-VRPR-FMK (Malt1 inhibitor [22]; Alexis). […]"}, "[2]": {"test_system": "Malt1", "assay": "Cytokine production by ELISA in supernatants of stimulated DCs", "conditions": "75 µM z-VRPR-FMK", "experimental": "(§2) Cells, stimulation, inhibition and RNA interference. This study was performed in accordance with the ethical guidelines of the Academic Medical Center. Immature DCs (iDC, day 6 and 7) were generated as described previously. In short, human blood monocytes were isolated from buffy coats by a Ficoll and a Percoll gradient and or CD14 selection by magnetic beads. Monocytes were differentiated into immature DCs in the presence of IL-4 and GM-CSFAt day 6 the phenotype of the cultured DCs was confirmed by flow cytometric analysis. 100.000 DCs were stimulated with 10 µg/ml curdlan (Sigma), heat-killed Candida spp. (multiplicity of infection (MOI) 10) and 10 ng/ml LPS from Salmonella typhosa (Sigma) in 100-150 µl medium. Dectin-2 triggering was induced by pre-incubating DCs for 2 h at room temperature with 5 µg/ml anti-dectin-2 (MAB3114; R&D Systems), followed by cross-linking on goat-anti-mouse IgG (115-006-0710; Jackson)-coated culture plates. Cells were pre-incubated with blocking antibodies or inhibitor for 2 h with 20 µg/ml anti-dectin-1 (MAB1859; R&D Systems), 20 µg/ml anti-dectin-2 (MAB3114; R&D Systems) or 75 µM z-VRPR-FMK (Malt1 inhibitor [22]; Alexis). DCs were transfected with 25 nM siRNA (SEQ ID NO:5-8) using transfection reagens DF4 (Dharmacon), and used for experiments 72 h after transfection. 'SMARTpool' siRNAs used were: Syk (M-003176-03), CARD9 (M-004400-01), Bcl10 (M-004381-02), Malt1 (M-005936-02), c-Rel (M-004768-01) and non-targeting siRNA (D-001206-13) as a control (Dharmacon). […] PCR amplification was performed with the SYBR green method in an ABI 7900HT sequence detection system (Applied Biosystems).Silencing of expression was verified by real-time PCR and flow cytometry (not shown).\nCytokine production. Cell culture supernatants were harvested after 28 h of stimulation and concentrations of IL-1β, IL-23, IL-6 (Invitrogen) and IL-12p70 (eBioscience) were determined by ELISA."}, "[3]": {"test_system": "Malt1", "assay": "Quantitative real-time PCR for cytokine mRNAs in stimulated DCs", "conditions": "curdlan-stimulated DCs; 75 µM z-VRPR-FMK", "experimental": "as §2\nQuantitative real-time PCR. mRNA isolation, cDNA synthesis and PCR amplification with the SYBR green method in an ABI 7500 Fast PCR detection system (Applied Biosystems) were performed as described. Standard conditions according to manufacturer's instructions were used. Specific primers were designed using Primer Express 2.0 (Applied Biosystems; Supplementary Table 1). The Ct value is defined as the number of PCR cycles where the fluorescence signal exceeds the detection threshold value. For each sample, the normalized amount of target mRNA was calculated from the obtained Ct values for both target and GAPDH mRNA with Nt = 2^Ct(GAPDH)-Ct(target) The relative mRNA expression was obtained by setting Nt in curdlan-or LPS-stimulated samples at 1 within one experiment and for each donor."}, "[4]": {"test_system": "Malt1", "assay": "Th17 polarization assay (primed DCs co-cultured with memory CD4+ T cells)", "conditions": "DCs pre-incubated with z-VRPR-FMK", "experimental": "Th17 polarization assay. Memory CD4^+ T cells were isolated as described previously. Human PBMC were isolated from heparinized human peripheral blood by density gradient centrifugation on Lymphoprep (Nycomed), and PBMC were subsequently seperated in monocytes and PBL by density gradient centrifugation on Percoll (Pharmacia). Memory CD4^+ T cells were isolated with CD45R0^+-PE (Dakopatts) and anti-PE-beads (MACS). iDCs were preincubated for 2 h with inhibitors, activated for 16 h with curdlan or heat-killed Candida spp. and subsequently co-cultured with memory CD4^+ T cells as described (20,000 T cells/2000 DCs in the presence of 10 pg/ml Staphylococcus aureus enterotoxin B (Sigma). After 5 days of co-culture, supernatants were harvested and analyzed for IL-17 production by ELISA (Biosource). Cells were further cultured in the presence of 10 U/ml IL-2 (Chiron) and resting cells were restimulated after 12 days with 100 ng/ml PMA (Sigma) and 1 µg/ml ionomycin (Sigma) for 6 h, the last 5 h in the presence of 10 µg/ml brefeldin A (Sigma), and analyzed for intracellular cytokine expression by staining with biotinylated mouse anti-IL-17 (ebio64DE; eBioscience), followed by incubation with streptavidin-PE (BD Pharmingen) and FITC-conjugated mouse anti-IFN-γ (25723.11; BD)."}, "[5]": {"test_system": "Malt1", "assay": "NF-κB DNA binding in nuclear extracts of stimulated DCs (TransAM NF-κB family kit)", "conditions": "curdlan-stimulated DCs; 75 µM z-VRPR-FMK, 2 h pre-incubation", "experimental": "as §1\nNF-κB DNA binding. Nuclear extracts of DCs were prepared using NucBuster protein extraction kit (Novagen) and NF-κB DNA binding determined using TransAM NF-κB family kit (Active Motif)."}, "[6]": {"conditions": "more strongly than dectin-1 inhibition"}, "[7]": {"conditions": "DCs after C. albicans stimulation"}, "[8]": {"conditions": "DCs stimulated with C. albicans strain CBS8781 and CBS2712"}, "[9]": {"conditions": "DCs stimulated with C. lusitaniae and C. nivariensis"}}}
{"substance": "z-Valine-Arginine-Proline-DL-Arginine-FMK [z-VRPR-FMK]", "values": [{"measurement": "nuclear translocation of c-Rel", "setting": "[1]", "result": "specifically interferes"}, {"measurement": "C. albicans CBS2712-induced IL-1β expression", "setting": "[2]; [6]", "result": "decreased"}, {"measurement": "C. albicans CBS2712-induced IL-23 expression", "setting": "[2]; [6]", "result": "decreased"}, {"measurement": "IL-12p70 production", "setting": "[2]; [7]", "result": "unaffected"}, {"measurement": "expression of IL-6", "setting": "[2]; [7]", "result": "slightly upregulated"}, {"measurement": "expression of IL-1β: requirement for Malt1 activation", "setting": "[2]; [8]", "result": "required"}, {"measurement": "expression of IL-23: requirement for Malt1 activation", "setting": "[2]; [8]", "result": "required"}, {"measurement": "IL-1β production", "setting": "[2]; [9]", "result": "largely dependent on Malt1 protease activity"}, {"measurement": "IL-6 expression", "setting": "[2]; [9]", "result": "slightly enhanced"}, {"measurement": "IL-12p70", "setting": "[2]; [9]", "result": "unaffected"}, {"measurement": "IL-23 production", "setting": "[2]; [9]", "result": "largely dependent on Malt1 protease activity"}, {"measurement": "IL-1β protein expression", "setting": "[2]; curdlan-stimulated DCs, 28 h", "result": "severely reduced"}, {"measurement": "IL-6 expression", "setting": "[2]; curdlan-stimulated DCs, 28 h", "result": "only slightly enhancing"}, {"measurement": "IL-12p70 expression", "setting": "[2]; curdlan-stimulated DCs, 28 h", "result": "without affecting"}, {"measurement": "IL-23 protein expression", "setting": "[2]; curdlan-stimulated DCs, 28 h", "result": "severely reduced"}, {"measurement": "IL-1β mRNA levels", "setting": "[3]", "result": "markedly reduced"}, {"measurement": "IL-6 mRNA production", "setting": "[3]", "result": "slightly enhanced"}, {"measurement": "IL-12p35 mRNA production", "setting": "[3]", "result": "slightly enhanced"}, {"measurement": "IL-12p40 mRNA production", "setting": "[3]", "result": "neither dependent on Malt1 expression nor activation"}, {"measurement": "IL-23p19 mRNA levels", "setting": "[3]", "result": "markedly reduced"}, {"measurement": "ability of DCs primed by the different Candida spp. to promote IL-17 expression in CD4+ T cells", "setting": "[4]; C. albicans CBS8781, CBS2712, C. lusitaniae, C. nivariensis, intracellular IL-17 day 12", "result": "completely blocked"}, {"measurement": "capacity of curdlan-primed DCs to induce IL-17 expression in CD4+ T cells", "setting": "[4]; IL-17 ELISA day 5, intracellular IL-17 day 12", "result": "markedly reduced"}, {"measurement": "activation of c-Rel", "setting": "[5]", "result": "completely abolished"}, {"measurement": "activation of the other NF-κB subunits", "setting": "[5]", "result": "without affecting"}]}
